What was measured:
COX-2 promoter = COX-2 promoter luciferase reporter gene assay, transiently transfected RAW 264.7 cells; assay type: cell-based, murine; parameters: lauric acid-induced COX-2 expression on co-transfection of dominant-negative IkBa / lauric acid-induced COX-2 expression on co-transfection of dominant-negative PPARγ / lauric acid-induced COX-2 expression on co-transfection of dominant-negative TLR4 [DTLR4 (P712H)]: dose or concentration left out as unconfirmed
Excerpt: Plasmids and DNA Constructs—All plasmids and constructs were obtained or made as reported in either S. H. Rhee and D. Hwang, “Murine TOLL-like receptor 4 confers lipopolysaccaride responsiveness as determined by activation of NFκB and expression of the inducible cyclooxygenase,” Journal of Biological Chemistry, vol. 275, pp. 34035-34040 (2000); and J. Y. Lee et al., “Saturated fatty acids, but not unsaturated fatty acids, induce the expression of cyclooxygenase-2 mediated through TOLL-like receptor 4,” Journal of Biological Chemistry, vol. 276, pp. 16683-16689 (2001). Briefly, the luciferase reporter plasmids (pGL2) containing the promoter region of the murine COX-2 gene (−3201/+93 or −1017/+93) were provided by David Dewitt (Michigan State University, East Lansing, Mich.). To prepare the wild-type COX-2 promoter fragment, polymerase chain reaction (PCR) was performed with the primers named Kpn-COX2-For and Hind-COX2-Rev using the murine COX-2 (−1017/+93) luciferase reporter plasmid as a template. To prepare the mutant COX-2 promoter fragment containing mutated NFκB site, Kpn-COX2-Fmut and Hind-COX2-Rev were used as primers. Each PCR fragment was inserted into the KpnI and HindIII sites of pGL2 to generate the wild-type or mutant COX-2 (−410/+86) luciferase reporter constructs, respectively. Sequences for wild-type NFκB site and the primers were used as reported elsewhere. (See Lee et al., 2001). The 2×NFκB-luciferase reporter construct was a gift from Frank Mercurio (Signal Pharmaceuticals, San Diego, Calif.). HSP70-β-galactosidase reporter plasmid was a gift from Robert Modlin (University of California, Los Angeles, Calif.). The expression plasmids for a constitutively active form of TLR4 (DTLR4) and a dominant-negative mutant, DTLR4 (P712H) were prepared as previously described. See S. H. Rhee et al., 2000. The expression plasmid of the wild-type NFκB-inducing kinase (NIK), pRK-NIK(wt) was a gift from Mike Rothe (Tularik, South San Francisco, Calif.). The dominant-negative mutant of inhibitor kB (pCMV4-IkBa(DN)) was provided by Dean Ballard (Vanderbilt University, Nashville, Tenn.). 4×NFκB-luciferase reporter construct was purchased from Clontech (Palo Alto, Calif.) and used for transient transfection. Heat shock protein 70 (HSP70)-β-galactosidase reporter plasmid was from Robert Modlin (University of Calif., Los Angeles, Calif.). The expression plasmids for a wild-type TLR2 and a dominant-negative mutant [TLR2 (P681H)] were from C. B. Wilson (University of Washington, Seattle, Wash.). Constitutively active chimeric CD4-TLR4 was obtained from C. A. Janeway, Jr. (Yale University, New Haven, Conn.). The constitutively active form of MyD88 (MyD88(ΔToll)) and the dominant-negative mutant, MyD88(ΔDD) were kindly provided by Jurg Tschopp (University of Lausanne, Switzerland). The dominant-negative mutant of mouse PPARg [pCMX-PPARg(L466A/L467A)] was a gift from Ira Schulman (Ligand Pharmaceuticals, San Diego, Calif.). All DNA constructs were prepared in large scale using the EndoFree Plasmid Maxi kit (Qiagen, Chatsworth, Calif.) for transfection.
Transient transfection and luciferase assay—These procedures were performed as described in S. H. Rhee et al., “Murine TOLL-like receptor 4 confers lipopolysaccharide responsiveness as determined by activation of NFκB and expression of the inducible cyclooxygenase,” J. Biol. Chem., vol. 275, pp. 34035-34040 (2000); and J. H. Paik et al., “Two opposing effects of non-steroidal anti-inflammatory drugs on the expression of the inducible cyclooxygenase, Mediation through different signaling pathways,” J. Biol. Chem., vol. 275, pp. 28173-28179 (2000). Briefly, RAW 264.7 cells were plated in 6-well plates (5×10^5 cells/well) and transfected with luciferase reporter plasmids and HSP70-β-galactosidase plasmid as an internal control using SuperFect transfect reagent (Quiagen) according to the manufacturer's instructions. […]

[1] = system: constitutively active human TLR4 (CD4-TLR4); assay: NFκB reporter in 293T cells transfected with constitutively active TLR4; assay type: cell-based
Excerpt: Plasmids and DNA Constructs—All plasmids and constructs were obtained or made as reported in either S. H. Rhee and D. Hwang, “Murine TOLL-like receptor 4 confers lipopolysaccaride responsiveness as determined by activation of NFκB and expression of the inducible cyclooxygenase,” Journal of Biological Chemistry, vol. 275, pp. 34035-34040 (2000); and J. Y. Lee et al., “Saturated fatty acids, but not unsaturated fatty acids, induce the expression of cyclooxygenase-2 mediated through TOLL-like receptor 4,” Journal of Biological Chemistry, vol. 276, pp. 16683-16689 (2001). Briefly, the luciferase reporter plasmids (pGL2) containing the promoter region of the murine COX-2 gene (−3201/+93 or −1017/+93) were provided by David Dewitt (Michigan State University, East Lansing, Mich.). To prepare the wild-type COX-2 promoter fragment, polymerase chain reaction (PCR) was performed with the primers named Kpn-COX2-For and Hind-COX2-Rev using the murine COX-2 (−1017/+93) luciferase reporter plasmid as a template. To prepare the mutant COX-2 promoter fragment containing mutated NFκB site, Kpn-COX2-Fmut and Hind-COX2-Rev were used as primers. Each PCR fragment was inserted into the KpnI and HindIII sites of pGL2 to generate the wild-type or mutant COX-2 (−410/+86) luciferase reporter constructs, respectively. Sequences for wild-type NFκB site and the primers were used as reported elsewhere. […]

Compound: CCCCCCCCCCCC(=O)O [lauric acid]
- lauric acid-induced COX-2 expression on co-transfection of dominant-negative IkBa (COX-2 promoter; 24 hours): inhibited
- lauric acid-induced COX-2 expression on co-transfection of dominant-negative TLR4 [DTLR4 (P712H)] (COX-2 promoter; 24 hours): inhibits
- lauric acid-induced COX-2 expression on co-transfection of dominant-negative PPARγ (COX-2 promoter; 24 hours, with or without PPRE-like sequences): not altered
- lauric acid-induced COX-2 expression, promoter with mutated NFκB site vs wild-type site (COX-2 promoter; COX-2 promoter reporter with mutated NFκB site): significantly reduced
- effect on CD4-TLR4-induced NFκB activation [1]: potentiated

— patent publication US20030032674A1, “Use of unsaturated fatty acids to treat severe inflammatory diseases” (priority 2001, published 2003)
